Source: patent US20260217701A1, “SELECTIVE BET INHIBITORS AND USES THEREOF” (Tay Therapeutics Limited, priority 2022, published 2026)
Values joined by “and” are separate entries in the source; they are usually repeats but may differ in a detail not shown here. Equal entries are not always repeated. Where two headings read alike, the source gives them in different places.

Key:
[1] = Rat PK study #4 (Compound A PO 0.2 and 1.0 mg/kg, propylene glycol formulation); assay type: in vivo, Lewis rats; settings: propylene glycol-based formulation; for Plasma Concentration / concentration at 0.25 h / concentration at 0.5 h / concentration at 1 h / concentration at 2 h / concentration at 4 h / concentration at 6 h / concentration at 8 h / concentration at 24 h: Lewis rats; for MRT inf: read-out: MRTInf_obs
Method: For the fourth rat pharmacokinetic study, the pharmacokinetics of Compound A were assessed in male Lewis rats. Compound A was prepared in two different doses (0.2 mg/kg and 1.0 mg/kg) formulated in 20% propylene glycol/20% Vitamin E TPGS/60% water (see Table 1A for formulations). Animals were divided into two groups based on the compound formulation (n=3/group). The Compound A solutions were administered to animals orally (PO) and animals were then monitored over a 24 h period.
Blood samples (~0.2 mL) were collected according to a schedule (0.25, 0.5, 1, 2, 4, 6, 8, and 24 h following the initial dosing) by jugular vein by cannulation and EDTA-K2 was used as anticoagulant. Within 30 minutes of collection, the samples were centrifuged at approximately 4000 times g-force for 5 minutes at 4° C. to obtain blood plasma. The plasma samples were immediately divided into two aliquots (~75 μL each), transferred to a cryogenic vial, and stored in a freezer at −75±15° C. prior to analysis.
The concentration of Compound A in plasma samples was determined by liquid chromatography-mass spectrometry (LC-MS/MS) using a Shimadzu HPLC (DGU-20A5R; LC-30AD; SIL-30AC; Rack changer II; CTO-30A; and CBM-20A) and an AB API 5500+LC/MS/MS instrument. Samples were analyzed on an Agilent Poroshell 120 EC-C18 4 μm (50×2.1 mm) column. Solution A in the mobile phase was 95% water (0.1% formic acid) and solution B was 95% acetonitrile in water (0.1% formic acid), injection volume was 10 μL, and flow rate was 0.6 mL/min.
To prepare samples for analysis, serial concentrations were prepared by diluting the stock solution of analyte with a 50% acetonitrile in water solution. 5 μL working solutions (5, 10, 20, 50, 100, 500, 1000, 5000, and 10000 ng/ml) were added to 50 μL of the blank Lewis rat plasma to achieve calibration standards of ~0.5 to 1000 ng/ml (0.5, 1, 2, 5, 10, 50, 100, 500, and 1000 ng/ml) in a total volume of 55 μL. Five quality control samples at 1 ng/ml, 2 ng/ml, 5 ng/ml, 50 ng/ml, and 800 ng/ml for plasma were prepared independently of those used for the calibration curves. These QC samples were prepared on the day of analysis in the same way as calibration standards.
55 μL of standards, 55 μL of QC samples and 55 μL of unknown samples (50 μL of unknown rat plasma with 5 µL of blank solution) were added to 200 μL of acetonitrile containing IS mixture (verapamil) for precipitating protein respectively. The samples were then vortexed for 30 s. After centrifugation at 4° C., 3900 rpm for 15 min, the supernatant was diluted 3 times with water. 10 μL of diluted supernatant was injected into the LC/MS/MS system for quantitative analysis.

hydroxyproline = test: UUO study: hydroxyproline levels; assay type: in vivo, rats
Excerpt: Table 31 and FIGS. 27B-27C depict hydroxyproline levels in sham rats (black bar in FIG. 27B; square shape in FIG. 27C), UUO rats treated with vehicle (grey bar in FIG. 27B; circle shape in FIG. 27C), and UUO rats treated with Compound A (white bar in FIG. 27B; triangle shape in FIG. 27C).

[2] = 0.2 mg/kg PO, individual animals
[3] = male, Lewis, rat, plasma, po, 0.2 mg/kg, 0.2 mg/kg PO, individual animals
[4] = male, Lewis, rat, plasma, po, 0.2 mg/kg, 0.2 mg/kg PO, mean
[5] = male, Lewis, rat, plasma, po, 1 mg/kg, 1 mg/kg PO, individual animals
[6] = male, Lewis, rat, plasma, po, 1 mg/kg, 1 mg/kg PO, mean

Cn1cc(-c2ccccc2)c(-c2cn(C)c(=O)c3[nH]c(-c4cnn(C(F)(F)F)c4)cc23)cc1=O [Compound A, 6-methyl-4-(1-methyl-2-oxo-5-phenyl-1,2-dihydropyridin-4-yl)-2-(1-(trifluoromethyl)-1H-pyrazol-4-yl)-1,6-dihydro-7H-pyrrolo[2,3-c]pyridin-7-one]
AUCInf [1, 2]: 82.0 ng·h/mL and 51.1 ng·h/mL and 103 ng·h/mL
AUC_%Extrap_obs [1, 2]: 7.28% and 43.9% and 3.68%
AUClast [1, 2]: 76.0 ng·h/mL and 28.7 ng·h/mL and 99.1 ng·h/mL
AUClast/D [1, 2]: 380 (ng · h/mL)/(mg/kg) and 143 (ng · h/mL)/(mg/kg) and 496 (ng · h/mL)/(mg/kg)
Cmax [1, 2]: 5.29 ng/mL and 8.20 ng/mL
MRTInf_obs [1, 2]: 9.52 h and 7.69 h
T1/2 [1, 2]: 6.09 h and 4.94 h
AUC_%Extrap_obs ([1]; 0.2 mg/kg PO, mean): 18.3%
AUClast/D ([1]; 0.2 mg/kg PO, mean): 340 (ng · h/mL)/(mg/kg)
AUCInf ([1]; 1 mg/kg PO, individual animals): 454 ng·h/mL and 217 ng·h/mL
AUC_%Extrap_obs ([1]; 1 mg/kg PO, individual animals): 3.74% and 14.6%
AUClast ([1]; 1 mg/kg PO, individual animals): 437 ng·h/mL and 185 ng·h/mL and 447 ng·h/mL
AUClast/D ([1]; 1 mg/kg PO, individual animals): 437 (ng · h/mL)/(mg/kg) and 185 (ng · h/mL)/(mg/kg) and 447 (ng · h/mL)/(mg/kg)
Cmax ([1]; 1 mg/kg PO, individual animals): 47.5 ng/mL and 23.3 ng/mL and 44.9 ng/mL
MRTInf_obs ([1]; 1 mg/kg PO, individual animals): 11.4 h
T1/2 ([1]; 1 mg/kg PO, individual animals): 9.35 h
AUC_%Extrap_obs ([1]; 1 mg/kg PO, mean): 9.2%
AUClast/D ([1]; 1 mg/kg PO, mean): 356 (ng · h/mL)/(mg/kg)
clinical symptoms ([1]; 0.2 and 1 mg/kg PO): no abnormal clinical symptoms observed
Plasma Concentration ([1]; PO 1 mg/kg, 0.25 h, individual animals, 1 mg/kg): 6.05 ng/mL and 2.36 ng/mL and 5.82 ng/mL
Plasma Concentration ([1]; PO 1 mg/kg, 0.5 h, individual animals, 1 mg/kg): 19.1 ng/mL
Plasma Concentration ([1]; PO 1 mg/kg, 2 h, individual animals, 1 mg/kg): 47.5 ng/mL and 23.3 ng/mL and 44.9 ng/mL
Plasma Concentration ([1]; PO 1 mg/kg, 4 h, individual animals, 1 mg/kg): 37.4 ng/mL and 15.0 ng/mL and 27.5 ng/mL
Plasma Concentration ([1]; PO 1 mg/kg, 6 h, individual animals, 1 mg/kg): 25.4 ng/mL and 9.27 ng/mL and 16.5 ng/mL
Plasma Concentration ([1]; PO 1 mg/kg, 8 h, individual animals, 1 mg/kg): 20.4 ng/mL and 7.30 ng/mL and 11.6 ng/mL
Plasma Concentration ([1]; PO 1 mg/kg, 24 h, individual animals, 1 mg/kg): 2.29 ng/mL and 2.35 ng/mL and 19.1 ng/mL
Tmax [1, 3]: 2 h
half-life [1, 3]: 391 min
Cmax ([1]; male, Lewis, rat, plasma, po, 0.2 mg/kg, 0.2 mg/kg PO, individual animals, read-out: Cmax): 7.99 ng/mL
MRT inf [1, 3]: 8.72 h
AUC(0-inf) [1, 4]: 79 ng·h/mL
AUC(0-t) [1, 4]: 67.9 ng·h/mL
Tmax [1, 4]: 2.67 h
half-life [1, 4]: 351 min
Cmax ([1]; male, Lewis, rat, plasma, po, 0.2 mg/kg, 0.2 mg/kg PO, mean, read-out: Cmax): 7.16 ng/mL
MRT inf [1, 4]: 8.65 h
concentration at 0.25 h ([1]; male, Lewis, rat, plasma, po, 0.2 mg/kg, PO 0.2 mg/kg, 0.25 h, mean of 3 animals): 0.34 ng/mL
concentration at 0.5 h ([1]; male, Lewis, rat, plasma, po, 0.2 mg/kg, PO 0.2 mg/kg, 0.5 h, individual animals): 2.31 ng/mL
concentration at 0.5 h ([1]; male, Lewis, rat, plasma, po, 0.2 mg/kg, PO 0.2 mg/kg, 0.5 h, mean of 3 animals): 1.77 ng/mL
concentration at 1 h ([1]; male, Lewis, rat, plasma, po, 0.2 mg/kg, PO 0.2 mg/kg, individual animals): 5.24 ng/mL
concentration at 1 h ([1]; male, Lewis, rat, plasma, po, 0.2 mg/kg, PO 0.2 mg/kg, mean of 3 animals): 4.51 ng/mL
concentration at 2 h ([1]; male, Lewis, rat, plasma, po, 0.2 mg/kg, PO 0.2 mg/kg, 2 h, individual animals): 7.99 ng/mL
concentration at 2 h ([1]; male, Lewis, rat, plasma, po, 0.2 mg/kg, PO 0.2 mg/kg, 2 h, mean of 3 animals): 7.09 ng/mL
concentration at 4 h ([1]; male, Lewis, rat, plasma, po, 0.2 mg/kg, PO 0.2 mg/kg, 4 h, mean of 3 animals): 6.11 ng/mL
concentration at 6 h ([1]; male, Lewis, rat, plasma, po, 0.2 mg/kg, PO 0.2 mg/kg, 6 h, individual animals): 4.13 ng/mL
concentration at 6 h ([1]; male, Lewis, rat, plasma, po, 0.2 mg/kg, PO 0.2 mg/kg, 6 h, mean of 3 animals): 4.48 ng/mL
concentration at 8 h ([1]; male, Lewis, rat, plasma, po, 0.2 mg/kg, PO 0.2 mg/kg, 8 h, mean of 3 animals): 3.96 ng/mL
concentration at 24 h ([1]; male, Lewis, rat, plasma, po, 0.2 mg/kg, PO 0.2 mg/kg, 24 h, mean of 3 animals): 0.389 ng/mL
Tmax [1, 5]: 2 h
half-life [1, 5]: 308 min
MRT inf [1, 5]: 7.1 h
AUC(0-inf) [1, 6]: 335 ng·h/mL
AUC(0-t) [1, 6]: 356 ng·h/mL
Tmax [1, 6]: 2 h
half-life [1, 6]: 434 min
Cmax ([1]; male, Lewis, rat, plasma, po, 1 mg/kg, 1 mg/kg PO, mean, read-out: Cmax): 38.6 ng/mL
MRT inf [1, 6]: 9.3 h
concentration at 0.25 h ([1]; male, Lewis, rat, plasma, po, 1 mg/kg, PO 1 mg/kg, 0.25 h, mean of 3 animals): 4.74 ng/mL
concentration at 0.5 h ([1]; male, Lewis, rat, plasma, po, 1 mg/kg, PO 1 mg/kg, 0.5 h, mean of 3 animals): 15.2 ng/mL
concentration at 1 h ([1]; male, Lewis, rat, plasma, po, 1 mg/kg, PO 1 mg/kg, mean of 3 animals): 30.4 ng/mL
concentration at 2 h ([1]; male, Lewis, rat, plasma, po, 1 mg/kg, PO 1 mg/kg, 2 h, mean of 3 animals): 38.6 ng/mL
concentration at 4 h ([1]; male, Lewis, rat, plasma, po, 1 mg/kg, PO 1 mg/kg, 4 h, mean of 3 animals): 26.6 ng/mL
concentration at 6 h ([1]; male, Lewis, rat, plasma, po, 1 mg/kg, PO 1 mg/kg, 6 h, mean of 3 animals): 17.1 ng/mL
concentration at 8 h ([1]; male, Lewis, rat, plasma, po, 1 mg/kg, PO 1 mg/kg, 8 h, mean of 3 animals): 13.1 ng/mL
concentration at 24 h ([1]; male, Lewis, rat, plasma, po, 1 mg/kg, PO 1 mg/kg, 24 h, mean of 3 animals): 7.9 ng/mL
Final Hydroxyproline Con., Mean (hydroxyproline; UUO rats + Compound A, group mean of 8): 0.66 μg/mg tissue
Final Hydroxyproline Con., Mean ± SEM (hydroxyproline; UUO rats + Compound A, group of 8): 0.66 ± 0.05 μg/mg tissue
Final Hydroxyproline Con. (hydroxyproline; UUO rats + Compound A, individual animals): 0.69 μg/mg tissue and 0.86 μg/mg tissue and 0.63 μg/mg tissue and 0.61 μg/mg tissue (2×) and 0.64 μg/mg tissue and 0.44 μg/mg tissue and 0.80 μg/mg tissue
Hydroxyproline levels, difference between experimental groups (hydroxyproline; UUO rats, 10 mg/kg): No significant differences
